Counter-ions that a name gives are not always drawn. Like-named read-outs stand apart in the source and are kept apart here.
Assays:
[1] = system: non-stimulated PBMCs; test: Non-stimulated PBMCs: cytokine secretion and signs of T-cell activation; type: cell-based, human
From the text: This is an important finding for compounds that shall selectively act on T cells which have been activated by presence of antigen from pathogens or tumors, but shall not lead to an unwanted general activation of all T cells of a patient.

[2] = system: K562 leukemia cells; test: Living tumor cells (K562) in the presence of NK cells; type: cell-based, human
Description: Isolated PBMCs, NK cells or CD8 positive cells were plated in Xvivo medium at 1.5*10^5 cells per in 96 well culture plates in the presence of 0.3*10^4 tumor cells where indicated. Cytokine secretion was determined by ELISA, immune cell activation (using Beckman-Coulter Abs CD25-PC5, CD69-PC7), cell viability and numbers by flow cytometry (Beckman-Coulter FC500 or Gallios) using 7-AAD exclusion as criterion for living cells. NK cells were isolated from PBMCs and were incubated with and without compounds, either alone or in co-culture with K562 leukemia cells.

[3] = system: aCD3/aCD28-stimulated human PBMCs; test: Cytokine production in aCD3/aCD28 stimulated human PBMCs; type: cell-based; conditions: PBMC, 18 h
Method in brief: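 Compound effects measured in buffy-coat PBMCs activated 18 h at 37° C by 1 μg/mL each of soluble anti-CD3 (OKT3) and anti-CD28 (28.2), 1e6 cells/mL. Cytokines in harvested supernatants read by MSD or HTRF.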

[4] = system: aCD3/aCD28-stimulated human CD4+-T-cells; test: IL-2 production and activation markers in aCD3/aCD28 stimulated isolated human CD4+-T-cells; type: cell-based; conditions: IL-2 production at 3 μM compound
Method in brief: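 CD4+ T cells isolated from buffy-coat PBMCs by microbeads were plated in Xvivo medium (1.5*10^5 cells/well) and stimulated with anti-CD3/28 mAbs plus compound. IL-2 measured by ELISA in supernatants at 24 h or 48 h; CD25 and proliferation by flow cytometry, CD69 at 24 h. Activity classes based on IL-2 at 3 μM compound.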

[5] = enhancement of IFN-γ production, read-out: Activity Class IFN-γ
[6] = enhancement of IL-2 production, read-out: Activity Class IL-2

| SMILES | cytokine secretion or other signs of T-cell activation [1] | Living tumor cells ([2]; K562 only, 0.3 μM) | Living tumor cells ([2]; K562 only, 3 μM) | Living tumor cells ([2]; K562 only, 30 μM) | Living tumor cells ([2]; NK cells & K562, 0.01 μM) | Living tumor cells ([2]; NK cells & K562, 0.03 μM) | Living tumor cells ([2]; NK cells & K562, 0.1 μM) | Living tumor cells ([2]; NK cells & K562, 0.3 μM) | Living tumor cells ([2]; NK cells & K562, 1 μM) | Living tumor cells ([2]; NK cells & K562, 3 μM) | Living tumor cells ([2]; NK cells & K562, 10 μM) | Living tumor cells ([2]; NK cells & K562, 30 μM) | EC50 [3, 5] [nM] | EC50 [3, 6] [nM] | Activity Class CD4+ [4] |
| --- | --- | --- | --- | --- | --- | --- | --- | --- | --- | --- | --- | --- | --- | --- | --- |
| CCCCNC(=O)c1ccc2c(c1)N(Cc1ccc(OC(F)(F)F)cc1)C(=O)[C@@H](N)CS2(=O)=O.Cl [Example 67, (3R)-3-amino-N-butyl-1,1,4-trioxo-5-{[4-(trifluoromethoxy)phenyl]methyl}-2,3,4,5-tetrahydro-1λ^6,5-benzothiazepine-7-carboxamide hydrochloride] | did not enhance cytokine secretion or other signs of T-cell activation | 22199.00 | 20750.33 | 22719.33 | 709.00 | 779.67 | 712.67 | 676.00 | 623.33 | 620.33 | 611.67 | 632.00 | < 1580 | < 1580 | A (IL-2 production at 3 μM compound concentration >10 ng/mL) |
| N[C@H]1CS(=O)(=O)c2cc(F)c(C(=O)NC3CC3(F)F)cc2N(Cc2ccc(Cl)cc2)C1=O (stereo partly drawn) [Example 1, (3R)-3-amino-5-[(4-chlorophenyl)methyl]-N-(2,2-difluorocyclopropyl)-8-fluoro-1,1,4-trioxo-2,3,4,5-tetrahydro-1λ^6,5-benzothiazepine-7-carboxamide hydrochloride] | did not enhance cytokine secretion or other signs of T-cell activation | – | – | – | – | – | – | – | – | – | – | – | < 1580 | < 1580 | A (IL-2 production at 3 μM compound concentration >10 ng/mL) |
| CC(C)NC(=O)c1cc2c(cc1F)S(=O)(=O)C[C@H](N)C(=O)N2Cc1ccc(Cl)cc1.Cl [Example 77, (3R)-3-amino-5-[(4-chlorophenyl)methyl]-8-fluoro-1,1,4-trioxo-N-(propan-2-yl)-2,3,4,5-tetrahydro-1λ^6,5-benzothiazepine-7-carboxamide hydrochloride] | did not enhance cytokine secretion or other signs of T-cell activation | 31786.33 | 21495.00 | 22503.00 | 696.00 | 636.00 | 567.00 | 589.00 | 520.33 | 406.33 | 398.33 | 408.33 | 1580 to 5010 | 1580 to 5010 | C (IL-2 production at 3 μM compound concentration between 2-fold increase as compared to mean IL-2 production of stimulated cells in the absence of compounds and <2 ng/mL) |
| Cl.N[C@H]1CS(=O)(=O)c2cc(F)c(C(=O)NCCCC(F)(F)F)cc2N(Cc2ccc(Cl)cc2)C1=O [Example 70, (3R)-3-amino-5-[(4-chlorophenyl)methyl]-8-fluoro-1,1,4-trioxo-N-(4,4,4-trifluoro-butyl)-2,3,4,5-tetrahydro-1λ^6,5-benzothiazepine-7-carboxamide hydrochloride] | – | – | – | – | – | – | – | – | – | – | – | – | < 1580 | < 1580 | A (IL-2 production at 3 μM compound concentration >10 ng/mL) |
